# Source: US20240270762A1, “PENICILLIN-BINDING PROTEIN INHIBITORS” (priority 2021, published 2024)
# pEC50: −log10 of the molar value.
# Columns and labels:
# P. aeruginosa ATCC 27853 = assay: microbe, parasite or virus in culture; assay type: cell-based; details: Pseudomonas aeruginosa, ATCC27853, read-out: Minimum inhibitory concentration, P. aeruginosa ATCC 27853
# P. aeruginosa CDC-0110 = assay: microbe, parasite or virus in culture; assay type: cell-based; details: Pseudomonas aeruginosa, CDC0110, read-out: Minimum inhibitory concentration, P. aeruginosa CDC-0110
# A. baumannii CDC-0045 = assay: microbe, parasite or virus in culture; assay type: cell-based; details: Acinetobacter baumannii, CDC0045, read-out: MIC, A. baumannii CDC-0045
# P. aeruginosa ATCC 35151 = assay: microbe, parasite or virus in culture; assay type: cell-based; details: Pseudomonas aeruginosa, ATCC35151, read-out: Minimum inhibitory concentration, P. aeruginosa ATCC 35151
# [1] = system: B. thailandensis ATCC 700388; assay: microbe, parasite or virus in culture; assay type: cell-based; details: Burkholderia thailandensis, ATCC700388, read-out: Minimum inhibitory concentration (MIC), B. thailandensis ATCC 700388
# [2] = system: P. aeruginosa (ΔmexAB-oprM); assay: Broth microdilution MIC in iron-depleted CAMHB (IDM); assay type: cell-based; details: Pseudomonas aeruginosa; iron-depleted CAMHB (IDM); […]; read-out: Minimum inhibitory concentration, P. aeruginosa ΔmexAB-oprM
# A. baumannii CDC-0036 = assay: microbe, parasite or virus in culture; assay type: cell-based; details: Acinetobacter baumannii, CDC0036, read-out: MIC, A. baumannii CDC-0036
# [3] = system: B. humptydooensis ATCC BAA-2767; assay: microbe, parasite or virus in culture; assay type: cell-based; details: Burkholderia humptydooensis, ATCCBAA2767, read-out: Minimum inhibitory concentration (MIC), B. humptydooensis ATCC BAA-2767
# A. baumannii CDC-0033 = assay: microbe, parasite or virus in culture; assay type: cell-based; details: Acinetobacter baumannii, CDC0033, read-out: MIC, A. baumannii CDC-0033
# A. baumannii PBP1a = molecular target: T1, A. baumannii PBP1a (Acinetobacter baumannii, UniProt A0ABX6CK30); assay: Bocillin-FL competition binding via gel filtration, A. baumannii PBP1a; details: competition binding assay using Bocillin-FL via gel filtration; read-out: A. baumannii PBP1a Potency
# T1 sequence (A0ABX6CK30 1-851): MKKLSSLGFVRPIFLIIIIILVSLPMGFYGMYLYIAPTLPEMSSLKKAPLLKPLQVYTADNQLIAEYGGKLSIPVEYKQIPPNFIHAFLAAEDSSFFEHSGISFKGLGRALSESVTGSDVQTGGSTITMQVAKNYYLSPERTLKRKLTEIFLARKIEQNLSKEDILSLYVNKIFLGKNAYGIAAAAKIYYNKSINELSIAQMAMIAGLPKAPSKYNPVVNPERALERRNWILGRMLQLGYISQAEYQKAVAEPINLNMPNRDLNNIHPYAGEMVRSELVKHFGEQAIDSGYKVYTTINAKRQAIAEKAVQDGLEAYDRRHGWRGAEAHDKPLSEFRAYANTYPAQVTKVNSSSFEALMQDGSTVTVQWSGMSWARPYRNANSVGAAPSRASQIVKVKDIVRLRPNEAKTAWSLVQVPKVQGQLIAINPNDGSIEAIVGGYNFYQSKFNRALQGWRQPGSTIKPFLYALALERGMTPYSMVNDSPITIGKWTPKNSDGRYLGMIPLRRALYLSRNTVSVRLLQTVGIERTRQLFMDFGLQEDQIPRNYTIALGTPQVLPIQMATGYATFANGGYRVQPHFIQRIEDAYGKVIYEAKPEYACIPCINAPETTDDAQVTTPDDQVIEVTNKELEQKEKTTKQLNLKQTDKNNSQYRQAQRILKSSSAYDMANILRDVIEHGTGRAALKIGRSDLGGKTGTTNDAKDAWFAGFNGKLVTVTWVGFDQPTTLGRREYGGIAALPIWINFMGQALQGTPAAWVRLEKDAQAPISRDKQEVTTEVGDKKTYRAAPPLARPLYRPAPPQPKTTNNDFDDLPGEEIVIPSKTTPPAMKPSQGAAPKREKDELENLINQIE
# In short: (§1)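 Enzyme pre-incubated with increasing inhibitor concentrations, then Bocillin-FL added for 15 min further incubation. Bocillin-FL-bound PBP separated by gel filtration and fluorescence read. EC50 from fitting fraction PBP bound vs inhibitor concentration to a Hill-type equation (ymin, ymax, n).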
# A. baumannii PBP2 = A. baumannii PBP2 (Acinetobacter baumannii, UniProt D0C8Z9); assay: Bocillin-FL competition binding via gel filtration, A. baumannii PBP2
# Sequence of A. baumannii PBP2 (D0C8Z9 whole entry): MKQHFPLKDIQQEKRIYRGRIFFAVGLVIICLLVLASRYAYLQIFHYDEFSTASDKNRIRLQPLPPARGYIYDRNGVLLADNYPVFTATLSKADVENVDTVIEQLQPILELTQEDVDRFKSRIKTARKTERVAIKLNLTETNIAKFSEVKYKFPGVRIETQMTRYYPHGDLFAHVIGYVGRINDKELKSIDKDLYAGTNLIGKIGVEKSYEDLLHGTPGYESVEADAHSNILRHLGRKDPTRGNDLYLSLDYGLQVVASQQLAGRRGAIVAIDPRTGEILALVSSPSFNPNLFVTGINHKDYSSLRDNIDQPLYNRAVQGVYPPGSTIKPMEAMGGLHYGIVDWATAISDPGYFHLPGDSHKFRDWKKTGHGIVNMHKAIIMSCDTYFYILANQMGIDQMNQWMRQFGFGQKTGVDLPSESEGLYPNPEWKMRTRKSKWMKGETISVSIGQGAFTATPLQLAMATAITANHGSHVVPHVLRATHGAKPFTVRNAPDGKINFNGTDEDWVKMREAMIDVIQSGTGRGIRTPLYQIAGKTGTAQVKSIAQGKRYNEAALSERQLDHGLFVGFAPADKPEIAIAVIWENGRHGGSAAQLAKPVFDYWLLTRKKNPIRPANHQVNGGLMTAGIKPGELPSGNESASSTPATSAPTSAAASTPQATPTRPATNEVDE
# In short: as §1
smiles,measurement,setting,value
"O=C(O)c1c(F)ccc2c1OB(O)[C@@H](NC(=O)[C@H](NC(=O)N1CCN(Cc3ccc(O)c(O)c3Cl)C(=O)C1=O)c1ccc(P(=O)(O)O)cc1)C2 (single isomer, unassigned) [Example 160]",MIC,P. aeruginosa ATCC 27853,< 1 µg/mL
same,MIC,P. aeruginosa CDC-0110,< 1 µg/mL
same,MIC,A. baumannii CDC-0045,< 1 µg/mL
same,MIC,P. aeruginosa ATCC 35151,< 1 µg/mL
same,MIC,[1],< 1 µg/mL
same,MIC,[2],< 1 µg/mL
same,MIC,A. baumannii CDC-0036,< 1 µg/mL
same,MIC,[3],< 1 µg/mL
same,MIC,A. baumannii CDC-0033,< 1 µg/mL
same,pEC50,A. baumannii PBP1a,> 5.00
same,pEC50,A. baumannii PBP2,> 5.00
"O=C(O)c1c(F)ccc2c1OB(O)[C@@H](NC(=O)[C@H](NC(=O)N1CCN(Cc3ccc(O)c(O)c3Cl)C(=O)C1=O)c1cccc(P(=O)(O)O)c1)C2 (single isomer, unassigned) [Example 163]",MIC,P. aeruginosa ATCC 27853,< 1 µg/mL
same,MIC,P. aeruginosa CDC-0110,< 1 µg/mL
same,MIC,A. baumannii CDC-0045,< 1 µg/mL
same,MIC,P. aeruginosa ATCC 35151,< 1 µg/mL
same,MIC,[1],< 1 µg/mL
same,MIC,[2],< 1 µg/mL
same,MIC,A. baumannii CDC-0036,< 1 µg/mL
same,MIC,[3],< 1 µg/mL
same,MIC,A. baumannii CDC-0033,< 1 µg/mL
same,pEC50,A. baumannii PBP1a,> 5.00
same,pEC50,A. baumannii PBP2,4.30 to 5.00
"O=C(NCCS(=O)(=O)N1CCN(C(=O)N[C@@H](C(=O)N[C@H]2Cc3ccc(F)c(C(=O)O)c3OB2O)c2ccc(P(=O)(O)O)cc2)C1=O)c1ccc(O)c(O)c1Cl (single isomer, unassigned) [Example 168]",MIC,P. aeruginosa ATCC 27853,8 to 16 µg/mL
same,MIC,P. aeruginosa CDC-0110,32 to 64 µg/mL
same,MIC,A. baumannii CDC-0045,2 to 4 µg/mL
same,MIC,P. aeruginosa ATCC 35151,2 to 4 µg/mL
same,MIC,[1],< 1 µg/mL
same,MIC,[2],8 to 16 µg/mL
same,MIC,A. baumannii CDC-0036,2 to 4 µg/mL
same,MIC,[3],< 1 µg/mL
same,MIC,A. baumannii CDC-0033,32 to 64 µg/mL
same,pEC50,A. baumannii PBP1a,3.60 to 4.30
same,pEC50,A. baumannii PBP2,> 5.00
"O=C(O)c1c(F)ccc2c1OB(O)[C@@H](NC(=O)[C@H](NC(=O)N1CCN(C3CCN(C(=O)Nc4ccc(O)cc4)CC3)C(=O)C1=O)c1cc(F)c(O)c(O)c1Cl)C2 (single isomer, unassigned) [Example 426]",MIC,P. aeruginosa ATCC 27853,2 to 4 µg/mL
same,MIC,P. aeruginosa CDC-0110,< 1 µg/mL
same,MIC,A. baumannii CDC-0045,2 to 4 µg/mL
same,MIC,P. aeruginosa ATCC 35151,< 1 µg/mL
same,MIC,[1],< 1 µg/mL
same,MIC,[2],< 1 µg/mL
same,MIC,A. baumannii CDC-0036,8 to 16 µg/mL
same,MIC,[3],< 1 µg/mL
same,MIC,A. baumannii CDC-0033,2 to 4 µg/mL
same,pEC50,A. baumannii PBP1a,4.30 to 5.00
same,pEC50,A. baumannii PBP2,4.30 to 5.00
"O=C(O)c1c(F)ccc2c1OB(O)[C@@H](NC(=O)[C@H](NC(=O)N1CCN(C3CCN(C(=O)c4cccc(O)c4)CC3)C1=O)c1cc(F)c(O)c(O)c1Cl)C2 (single isomer, unassigned) [Example 430]",MIC,P. aeruginosa ATCC 27853,< 1 µg/mL
same,MIC,P. aeruginosa CDC-0110,< 1 µg/mL
same,MIC,A. baumannii CDC-0045,8 to 16 µg/mL
same,MIC,P. aeruginosa ATCC 35151,< 1 µg/mL
same,MIC,[1],< 1 µg/mL
same,MIC,[2],< 1 µg/mL
same,MIC,A. baumannii CDC-0036,8 to 16 µg/mL
same,MIC,[3],< 1 µg/mL
same,MIC,A. baumannii CDC-0033,8 to 16 µg/mL
same,pEC50,A. baumannii PBP1a,> 5.00
same,pEC50,A. baumannii PBP2,> 5.00
"O=C(O)c1c(F)ccc2c1OB(O)[C@@H](NC(=O)[C@H](NC(=O)N1CCN(C3CCN(C(=O)c4cccc(O)c4F)CC3)C1=O)c1cc(F)c(O)c(O)c1Cl)C2 (single isomer, unassigned) [Example 431]",MIC,P. aeruginosa ATCC 27853,< 1 µg/mL
same,MIC,P. aeruginosa CDC-0110,< 1 µg/mL
same,MIC,A. baumannii CDC-0045,< 1 µg/mL
same,MIC,P. aeruginosa ATCC 35151,< 1 µg/mL
same,MIC,[1],< 1 µg/mL
same,MIC,[2],< 1 µg/mL
same,MIC,A. baumannii CDC-0036,< 1 µg/mL
same,MIC,[3],< 1 µg/mL
same,MIC,A. baumannii CDC-0033,< 1 µg/mL
same,pEC50,A. baumannii PBP1a,> 5.00
same,pEC50,A. baumannii PBP2,> 5.00
"O=C(O)c1c(F)ccc2c1OB(O)[C@@H](NC(=O)C(NC(=O)N1CCN(C3CCN(C(=O)Nc4ccc(F)c(O)c4F)CC3)C1=O)c1cc(F)c(O)c(O)c1Cl)C2 (stereo partly drawn) [Example 452, (3R)-3-(2-(2-chloro-5-fluoro-3,4-dihydroxyphenyl)-2-(3-(1-((2,4-difluoro-3-hydroxyphenyl)carbamoyl)piperidin-4-yl)-2-oxoimidazolidine-1-carboxamido)acetamido)-7-fluoro-2-hydroxy-3,4-dihydro-2H-benzo[e][1,2]oxaborinine-8-carboxylic acid]",MIC,P. aeruginosa ATCC 27853,2 to 4 µg/mL
same,MIC,P. aeruginosa CDC-0110,< 1 µg/mL
same,MIC,A. baumannii CDC-0045,< 1 µg/mL
same,MIC,P. aeruginosa ATCC 35151,< 1 µg/mL
same,MIC,[2],< 1 µg/mL
same,MIC,A. baumannii CDC-0036,2 to 4 µg/mL
same,MIC,A. baumannii CDC-0033,2 to 4 µg/mL
same,pEC50,A. baumannii PBP1a,4.30 to 5.00
same,pEC50,A. baumannii PBP2,> 5.00
